These molecules were tested against human PDE10A2 (Homo sapiens (Human), UniProt Q9Y233) (assay: PDE10 fluorescence polarization (IMAP FP) inhibition assay). Conditions: human PDE10 enzyme, FAM-labeled cAMP substrate, read-out: PDE10A Ki.
Format: biochemical
Experimental: The activity of the compounds in accordance with the present invention as PDE10 inhibitors may be readily determined without undue experimentation using a fluorescence polarization (FP) methodology that is well known in the art (Huang, W., et al.,J. Biomol Screen, 2002, 7: 215).
In a typical experiment the PDE10 inhibitory activity of the compounds of the present invention was determined in accordance with the following experimental method. PDE10A2 was amplified from human fetal brain cDNA (Clontech, Mountain View, Calif.) using a forward primer corresponding to nucleotides 56-77 of human PDE10A2 (Accession No. AF127480, Genbank Identifier 4894716), containing a Kozak consensus sequence, and a reverse primer corresponding to nucleotides 2406-2413 of human PDE10A2 (Accession No. AF127480, Genbank Identifier 4894716). Amplification with Easy-A polymerase (Stratagene, La Jolla, Calif.) was 95° C. for 2 minutes followed by thirty three cycles of 95° C. for 40 seconds, 55° C. for 30 seconds, and 72° C. for 2 minutes 48 seconds. Final extension was 72° C. for 7 minutes. The PCR product was TA cloned into pcDNA3.2-TOPO (Invitrogen, Carlsbad, Calif.) according to standard protocol. AD293 cells with 70-80% confluency were transiently transfected with human PDE10A2/pcDNA3.2-TOPO using Lipofectamine 2000 according to manufacturer specifications (Invitrogen, Carlsbad, Calif.). Cells were harvested 48 hours post-transfection and lysed by sonication (setting 3, 10×5 sec pulses) in a buffer containing 20 mM HEPES, 1 mM EDTA and protease inhibitor cocktail (Roche). Lysate was collected by centrifugation at 75,000×g for 20 minutes. Supernatant containing the cytoplasmic fraction was used for evaluation of PDE10A2 activity. The fluorescence polarization assay for cyclic nucleotide phosphodiesterases was performed using an IMAP® FP kit supplied by Molecular Devices, Sunnyvale, Calif. (product # R8139). IMAP® technology has been applied previously to phosphodiesterase assays (Huang, W., et al., J. Biomol Screen, 2002, 7: 215). Assays were performed at room temperature in 384-well microtiter plates with an incubation volume of 20.2 μL. Solutions of test compounds were prepared in DMSO and serially diluted with DMSO to yield 8 μL of each of 10 solutions differing by 3-fold in concentration, at 32 serial dilutions per plate. 100% inhibition is determined using a known PDE10 inhibitor, which can be any compound that is present at 5,000 times its Ki value in the assay described as follows, such as papaverine (see Siuciak, et al. Neuropharmacology (2006) 51:386-396; Becker, et al. Behav Brain Res (2008) 186(2):155-60; Threlfell, et al., J Pharmacol Exp Ther (2009) 328(3):785-795), 2-{-4-[pyridin-4-yl-1-(2,2,2-trifluoroethyl)-1H-pyrazol-3-yl]phenoxymethyl}quinoline succinic acid or 2-[4-(1-methyl-4-pyridin-4-yl-1H-pyrazol-3-yl)-phenoxymethyl]quinoline succinic acid (see Schmidt, et al. J Pharmacol Exp Ther (2008) 325:681-690; Threlfell, et al., J Pharmacol Exp Ther (2009) 328(3): 785-795). 0% of inhibition is determined by using DMSO (1% final concentrations).
A Labcyte Echo 555 (Labcyte, Sunnyvale, Calif.) is used to dispense […] from each well of the titration plate to the 384 well assay plate. A solution of enzyme ( 1/1600 dilution from aliquots; sufficient to produce 20% substrate conversion) and a separate solution of FAM-labeled cAMP PDE from Molecular Devices (product # R7506), at a final concentration of 50 nM are made in the assay buffer (10 mM Tris HCl, pH 7.2, 10 mM MgCl2, 0.05% NaN3 0.01% Tween-20, and 1 mM DTT). The enzyme and the substrate are then added to the assay plates in two consecutive additions of 10 μL, and then shaken to mix. The reaction is allowed to proceed at room temperature for 30 minutes. A binding solution is then made from the kit components, comprised of 80% Solution A, 20% Solution B and binding reagent at a volume of 1/600 the total binding solution. […]

Sequence of human PDE10A2 (Q9Y233 267-1055): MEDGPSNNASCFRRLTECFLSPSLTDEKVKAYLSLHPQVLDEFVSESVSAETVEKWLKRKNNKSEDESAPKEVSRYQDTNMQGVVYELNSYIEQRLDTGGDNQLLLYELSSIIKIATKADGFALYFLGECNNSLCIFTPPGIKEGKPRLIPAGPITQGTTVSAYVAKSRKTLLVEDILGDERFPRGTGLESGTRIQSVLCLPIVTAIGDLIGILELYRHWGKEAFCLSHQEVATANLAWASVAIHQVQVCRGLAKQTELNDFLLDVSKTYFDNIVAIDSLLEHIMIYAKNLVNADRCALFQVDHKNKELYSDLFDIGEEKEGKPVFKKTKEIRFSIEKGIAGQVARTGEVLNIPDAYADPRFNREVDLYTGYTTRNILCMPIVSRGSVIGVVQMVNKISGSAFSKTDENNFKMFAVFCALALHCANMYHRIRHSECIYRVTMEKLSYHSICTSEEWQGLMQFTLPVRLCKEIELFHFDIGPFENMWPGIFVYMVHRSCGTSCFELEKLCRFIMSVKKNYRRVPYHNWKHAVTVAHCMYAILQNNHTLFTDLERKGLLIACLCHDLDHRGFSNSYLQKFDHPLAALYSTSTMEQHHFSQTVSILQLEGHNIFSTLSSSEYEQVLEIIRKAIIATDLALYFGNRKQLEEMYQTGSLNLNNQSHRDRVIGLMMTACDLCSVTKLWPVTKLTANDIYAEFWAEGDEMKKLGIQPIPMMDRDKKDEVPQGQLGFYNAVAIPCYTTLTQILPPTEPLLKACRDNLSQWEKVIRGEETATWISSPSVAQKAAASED

SMILES	Ki
COc1ccc([C@H]2C[C@@H]2COc2cc(NCc3oc(C)nc3C)n3nccc3n2)nc1 (stereo in doubt) [Compound 1-3, N-[(2,4-dimethyl-1,3-oxazol-5-yl)methyl]-5-{[2-(5-methoxy-pyridin-2-yl)cyclopropyl]-methoxy}pyrazolo [1,5-a]pyrimidin-7-amine]	1.3 nM
Cc1nc(C)c(CNc2cc(C(C)C[C@@H]3C[C@H]3c3ccccn3)nc3ccnn23)s1 (stereo in doubt) [Compound 1-13, N-[(2,4-dimethyl-1,3-thiazol-5-yl)methyl]-5-{1-[2-(pyridin-2-yl)cyclopropyl]propan-2-yl}pyrazolo[1,5-a] pyrimidin-7-amine]	76.9 nM
Cc1ncc(CNc2cc(OC[C@H]3C[C@@H]3c3ccccn3)nc3ccnn23)s1 [Compound 1-4, (S,S)-N-[(2-methyl-1,3-thiazol-5-yl)-methyl]-5-{[2-(pyridin-2-yl)cyclopropyl]methoxy} pyrazolo[1,5-a]pyrimidin-7-amine]	0.11 nM
Cc1nc(C)c(CNc2cc(C3CC3)nc3ccnn23)s1 [Compound 1-9, 5-cyclopropyl-N-[(2,4-dimethyl-1,3-thiazol-5-yl)methyl]pyrazolo [1,5-a]pyrim-idin-7-amine]	9.2 nM
COc1ccc(CCCCc2cc(NCc3sc(C)nc3C)n3nccc3n2)nc1 [Compound 1-10, N-[(2,4-dimethyl-1,3-thiazol-5-yl)methyl]-5-[4-(5-methoxy-pyridin-2-yl)butyl]pyrazolo [1,5-a]pyrimidin-7-amine]	0.37 nM
Cc1nc(C)c(CNc2cc(CCC#Cc3ccc4ccccc4n3)nc3ccnn23)s1 [Compound 1-15, N-[(2,4-dimethyl-1,3-thiazol-5-yl)methyl]-5-[4-(quinolin-2-yl)but-3-yn-1-yl]pyrazolo[1,5-a] pyrimidin-7-amine]	0.14 nM
Cc1nnc(CNc2c(F)c(OC[C@H]3C[C@@H]3c3ccccn3)nc3ccnn23)s1 [Compound 1-18, 6-fluoro-N-[(5-methyl-1,3,4-thiadiazol-2-yl)methyl]-5-{[(1S,2S)-2-(pyridin-2-yl)cyclopropyl]methoxy} pyrazolo[1,5-a] pyrimidin-7-amine]	0.08 nM

The next lines start with the values.

Ki	SMILES
2.52 nM	Cc1c(OC[C@H]2C[C@@H]2c2ccccn2)nc2ccnn2c1NCc1cnn(C)c1 [Compound 1-20, 6-methyl-N-[(1-methyl-1H-pyrazol-4-yl)methyl]-5-{[(1S,2S)-2-(pyridin-2-yl)cyclopropyl]methoxy} pyrazolo[1,5-a] pyrimidin-7-amine]
20 nM	Cc1ccc([C@H]2C[C@@H]2COc2cc(Oc3ccc(C)nc3)n3nccc3n2)nc1 [Compound 1-22, 5-{[(1S,2S)-2-(5-methylpyridin-2-yl)cyclopropyl]methoxy}-7-[(6-methylpyridin-3-yl)oxy]pyrazolo[1,5-a] pyrimidine]
0.18 nM	Cc1nc(C)c(CNc2cc(C(=O)NC[C@H]3C[C@@H]3c3ccc4ccccc4n3)nc3ccnn23)s1 [Compound 1-23, 7-((2,4-dimethylthiazol-5-yl)methylamino)-N-(((1S,2S)-2-(quinolin-2-yl)cyclopropyl)methyl) pyrazolo[1,5-a] pyrimidine-5-carboxamide]
1.1 nM	Cc1nc(C)c(CNc2cc(C(=O)NCCc3ccccn3)nc3ccnn23)s1 [Compound 1-25, 7-((2,4-dimethylthiazol-5-yl)methylamino)-N-(2-(pyridin-2-yl)ethyl)pyrazolo [1,5-a] pyrimidine-5-earboxanaide]
